The source of these data is paper PMC6977461 (Chemical Science, 2019).

SMILES strings stand for the structures. pEC50: −log10 of the molar value. Like-named read-outs stand apart in the source and are kept apart here.

The target of this experiment is T1, mouse GLP-1 receptor (Mus musculus, UniProt O35659).
T1 construct: βTC6 cells which express GLP-1R endogenously; host or cells: βTC6 cells
T1 sequence (O35659 22-463): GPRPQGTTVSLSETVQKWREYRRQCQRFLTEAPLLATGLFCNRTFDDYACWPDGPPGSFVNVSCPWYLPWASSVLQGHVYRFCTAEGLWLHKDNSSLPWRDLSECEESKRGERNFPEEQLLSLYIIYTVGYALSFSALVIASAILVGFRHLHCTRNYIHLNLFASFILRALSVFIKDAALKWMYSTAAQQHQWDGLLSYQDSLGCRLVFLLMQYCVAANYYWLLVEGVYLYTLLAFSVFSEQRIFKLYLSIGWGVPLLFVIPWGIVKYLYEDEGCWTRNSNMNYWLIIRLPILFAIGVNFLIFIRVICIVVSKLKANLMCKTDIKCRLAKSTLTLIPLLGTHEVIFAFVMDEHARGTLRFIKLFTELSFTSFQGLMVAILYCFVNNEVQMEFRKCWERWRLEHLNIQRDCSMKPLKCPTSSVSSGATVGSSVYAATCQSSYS
Briefly: cAMP production in βTC6 cells expressing GLP-1R endogenously (Method C2). The experiment is classed as cell-based. The conditions noted are these: for Potency (%), Table S1: from EC50 in βTC6 cAMP assay, footnote: compare to GLP-1-NH2 (2). A general note: cAMP levels reflect the balance of adenylyl cyclase and phosphodiesterase activity.

Setting [1] is: read-out: EC50 (GLP-1R potency), Table S1.

Method:  HEK-293T cells (Multispan inc., lot#.DC1267-062017) were suspended in cell culture media
(DMEM 1X + GlutaMAX (Gibco 31966-021)) complemented with FBS 10% (Sigma Aldrich
 βTC6 cells were suspended in HBSS buffer (Invitrogen) complemented with 20 mM HEPES (pH
In vitro pharmacology on HEK-293T cells (EC50: Method C1)
cells (Multispan inc., lot#.DC1267-062017) was determined by measuring their effects on cAMP
production using the HTRF detection method (performed by UREkA SARL). The cells were distributed
in 384-well microplates at a density of 1.0x10^4 cells/well. Stock solutions of the test compounds or the
reference agonist were prepared at a concentration of 1 mM in DMSO. Then, compounds to be tested
were diluted in cell culture media and transferred to the plate containing the cells to reach final assay

What is called pEC50 is the negative decadic logarithm of the EC50, by convention in mol/L. For the compound `CC[C@H](C)[C@H](NC(=O)[C@H](Cc1ccccc1)NC(=O)[C@H](CCC(=O)O)NC(=O)[C@H](CCCCN)NC(=O)[C@H](C)NC(=O)[C@H](C)NC(=O)[C@H](CCC(N)=O)NC(=O)CNC(=O)[C@H](CCC(=O)O)NC(=O)[C@H](CC(C)C)NC(=O)[C@H](Cc1ccc(O)cc1)NC(=O)[C@H](CO)NC(=O)[C@H](CO)NC(=O)[C@@H](NC(=O)[C@H](CC(=O)O)NC(=O)[C@H](CO)NC(=O)[C@@H](NC(=O)[C@H](Cc1ccccc1)NC(=O)[C@@H](NC(=O)CNC(=O)[C@H](CCC(=O)O)NC(=O)NC[C@H](CC(C)C)NC(=O)[C@@H](N)Cc1c[nH]cn1)[C@@H](C)O)[C@@H](C)O)C(C)C)C(=O)N[C@@H](C)C(=O)N[C@@H](Cc1c[nH]c2ccccc12)C(=O)N[C@@H](CC(C)C)C(=O)N[C@H](C(=O)N[C@@H](CCCCN)C(=O)NCC(=O)N[C@@H](CCCNC(=N)N)C(=O)NCC(N)=O)C(C)C` [S7], the “Potency (%), Table S1” value was < 0.01%. Besides, under setting [1], the pEC50 was < 5.00.

With `CC[C@H](C)[C@H](NC(=O)[C@H](Cc1ccccc1)NC(=O)[C@H](CCC(=O)O)NC(=O)[C@H](CCCCN)NC(=O)[C@H](C)NC(=O)[C@H](C)NC(=O)[C@H](CCC(N)=O)NC(=O)CNC(=O)[C@H](CCC(=O)O)NC(=O)[C@H](CC(C)C)NC(=O)[C@H](Cc1ccc(O)cc1)NC(=O)[C@H](CO)NC(=O)[C@H](CO)NC(=O)[C@@H](NC(=O)[C@H](CC(=O)O)NC(=O)[C@H](CO)NC(=O)[C@@H](NC(=O)[C@H](Cc1ccccc1)NC(=O)[C@@H](NC(=O)CNC(=O)[C@H](CCC(=O)O)NC(=O)NC[C@H](CCCNC(=N)N)NC(=O)[C@@H](N)Cc1c[nH]cn1)[C@@H](C)O)[C@@H](C)O)C(C)C)C(=O)N[C@@H](C)C(=O)N[C@@H](Cc1c[nH]c2ccccc12)C(=O)N[C@@H](CC(C)C)C(=O)N[C@H](C(=O)N[C@@H](CCCCN)C(=O)NCC(=O)N[C@@H](CCCNC(=N)N)C(=O)NCC(N)=O)C(C)C` [S2], the “Potency (%), Table S1” value is < 0.01%. Besides, the negative-log EC50 (pEC50) under setting [1] was < 5.00.

Take `CC[C@H](C)[C@H](NC(=O)[C@H](Cc1ccccc1)NC(=O)[C@H](CCC(=O)O)NC(=O)[C@H](CCCCN)NC(=O)[C@H](C)NC(=O)[C@H](C)NC(=O)[C@H](CCC(N)=O)NC(=O)CNC(=O)[C@H](CCC(=O)O)NC(=O)[C@H](CC(C)C)NC(=O)[C@H](Cc1ccc(O)cc1)NC(=O)[C@H](CO)NC(=O)[C@H](CO)NC(=O)[C@@H](NC(=O)[C@H](CC(=O)O)NC(=O)[C@H](CO)NC(=O)[C@@H](NC(=O)[C@H](Cc1ccccc1)NC(=O)[C@@H](NC(=O)CNC(=O)[C@H](CCC(=O)O)NC(=O)NC[C@H](Cc1ccccc1)NC(=O)[C@@H](N)Cc1c[nH]cn1)[C@@H](C)O)[C@@H](C)O)C(C)C)C(=O)N[C@@H](C)C(=O)N[C@@H](Cc1c[nH]c2ccccc12)C(=O)N[C@@H](CC(C)C)C(=O)N[C@H](C(=O)N[C@@H](CCCCN)C(=O)NCC(=O)N[C@@H](CCCNC(=N)N)C(=O)NCC(N)=O)C(C)C` [S9]: the “Potency (%), Table S1” value is recorded as 21%. Besides, the negative logarithm of the EC50 (pEC50) under setting [1] was 9.30.

Consider `CC[C@H](C)[C@H](NC(=O)[C@H](Cc1ccccc1)NC(=O)[C@H](CCC(=O)O)NC(=O)[C@H](CCCCN)NC(=O)[C@H](C)NC(=O)[C@H](C)NC(=O)[C@H](CCC(N)=O)NC(=O)CNC(=O)[C@H](CCC(=O)O)NC(=O)[C@H](CC(C)C)NC(=O)[C@H](Cc1ccc(O)cc1)NC(=O)[C@H](CO)NC(=O)[C@H](CO)NC(=O)[C@@H](NC(=O)[C@H](CC(=O)O)NC(=O)[C@H](CO)NC(=O)[C@@H](NC(=O)[C@H](Cc1ccccc1)NC(=O)[C@@H](NC(=O)CNC(=O)[C@H](CCC(=O)O)NC(=O)NC[C@H](Cc1c[nH]c2ccccc12)NC(=O)[C@@H](N)Cc1c[nH]cn1)[C@@H](C)O)[C@@H](C)O)C(C)C)C(=O)N[C@@H](C)C(=O)N[C@@H](Cc1c[nH]c2ccccc12)C(=O)N[C@@H](CC(C)C)C(=O)N[C@H](C(=O)N[C@@H](CCCCN)C(=O)NCC(=O)N[C@@H](CCCNC(=N)N)C(=O)NCC(N)=O)C(C)C` [S11], for which the pEC50 was 8.66 and the “Potency (%), Table S1” value is on record as 5%.

Turning to `CC[C@H](C)[C@H](NC(=O)[C@H](Cc1ccccc1)NC(=O)[C@H](CCC(=O)O)NC(=O)[C@H](CCCCN)NC(=O)[C@H](C)NC(=O)[C@H](C)NC(=O)[C@H](CCC(N)=O)NC(=O)CNC(=O)[C@H](CCC(=O)O)NC(=O)[C@H](CC(C)C)NC(=O)[C@H](Cc1ccc(O)cc1)NC(=O)[C@H](CO)NC(=O)[C@H](CO)NC(=O)[C@@H](NC(=O)[C@H](CC(=O)O)NC(=O)[C@H](CO)NC(=O)[C@@H](NC(=O)[C@H](Cc1ccccc1)NC(=O)[C@@H](NC(=O)CNC(=O)[C@H](CCC(=O)O)NC(=O)NC[C@H](CS)NC(=O)[C@@H](N)Cc1c[nH]cn1)[C@@H](C)O)[C@@H](C)O)C(C)C)C(=O)N[C@@H](C)C(=O)N[C@@H](Cc1c[nH]c2ccccc12)C(=O)N[C@@H](CC(C)C)C(=O)N[C@H](C(=O)N[C@@H](CCCCN)C(=O)NCC(=O)N[C@@H](CCCNC(=N)N)C(=O)NCC(N)=O)C(C)C` [S3], the “Potency (%), Table S1” value turned out to be 0%. For the same compound, the pEC50 under setting [1] was 7.19.

Turning to `CC[C@H](C)[C@H](NC(=O)[C@H](Cc1ccccc1)NC(=O)[C@H](CCC(=O)O)NC(=O)[C@H](CCCCN)NC(=O)[C@H](C)NC(=O)[C@H](C)NC(=O)[C@H](CCC(N)=O)NC(=O)CNC(=O)[C@H](CCC(=O)O)NC(=O)[C@H](CC(C)C)NC(=O)[C@H](Cc1ccc(O)cc1)NC(=O)[C@H](CO)NC(=O)[C@H](CO)NC(=O)[C@@H](NC(=O)[C@H](CC(=O)O)NC(=O)[C@H](CO)NC(=O)[C@@H](NC(=O)[C@H](Cc1ccccc1)NC(=O)[C@@H](NC(=O)CNC(=O)[C@H](CCC(=O)O)NC(=O)NC[C@H](CCC(N)=O)NC(=O)[C@@H](N)Cc1c[nH]cn1)[C@@H](C)O)[C@@H](C)O)C(C)C)C(=O)N[C@@H](C)C(=O)N[C@@H](Cc1c[nH]c2ccccc12)C(=O)N[C@@H](CC(C)C)C(=O)N[C@H](C(=O)N[C@@H](CCCCN)C(=O)NCC(=O)N[C@@H](CCCNC(=N)N)C(=O)NCC(N)=O)C(C)C` [S4], the “Potency (%), Table S1” value is given as < 0.01%. In addition, under setting [1], the pEC50 is < 5.00.

Turning to `CC[C@H](C)[C@H](NC(=O)[C@H](Cc1ccccc1)NC(=O)[C@H](CCC(=O)O)NC(=O)[C@H](CCCCN)NC(=O)[C@H](C)NC(=O)[C@H](C)NC(=O)[C@H](CCC(N)=O)NC(=O)CNC(=O)[C@H](CCC(=O)O)NC(=O)[C@H](CC(C)C)NC(=O)[C@H](Cc1ccc(O)cc1)NC(=O)[C@H](CO)NC(=O)[C@H](CO)NC(=O)[C@@H](NC(=O)[C@H](CC(=O)O)NC(=O)[C@H](CO)NC(=O)[C@@H](NC(=O)[C@H](Cc1ccccc1)NC(=O)[C@@H](NC(=O)CNC(=O)[C@H](CCC(=O)O)NC(=O)CNC(=O)[C@@H](N)Cc1c[nH]cn1)[C@@H](C)O)[C@@H](C)O)C(C)C)C(=O)N[C@@H](C)C(=O)N[C@@H](Cc1c[nH]c2ccccc12)C(=O)N[C@@H](CC(C)C)C(=O)N[C@H](C(=O)N[C@@H](CCCCN)C(=O)NCC(=O)N[C@@H](CCCNC(=N)N)C(=O)NCC(N)=O)C(C)C` [S12, reference compound], the “Potency (%), Table S1” value is 42%.

In the case of `CC[C@H](C)[C@H](NC(=O)[C@H](Cc1ccccc1)NC(=O)[C@H](CCC(=O)O)NC(=O)[C@H](CCCCN)NC(=O)[C@H](C)NC(=O)[C@H](C)NC(=O)[C@H](CCC(N)=O)NC(=O)CNC(=O)[C@H](CCC(=O)O)NC(=O)[C@H](CC(C)C)NC(=O)[C@H](Cc1ccc(O)cc1)NC(=O)[C@H](CO)NC(=O)[C@H](CO)NC(=O)[C@@H](NC(=O)[C@H](CC(=O)O)NC(=O)[C@H](CO)NC(=O)[C@@H](NC(=O)[C@H](Cc1ccccc1)NC(=O)[C@@H](NC(=O)CNC(=O)[C@H](CCC(=O)O)NC(=O)NC[C@@H](NC(=O)[C@@H](N)Cc1c[nH]cn1)[C@@H](C)CC)[C@@H](C)O)[C@@H](C)O)C(C)C)C(=O)N[C@@H](C)C(=O)N[C@@H](Cc1c[nH]c2ccccc12)C(=O)N[C@@H](CC(C)C)C(=O)N[C@H](C(=O)N[C@@H](CCCCN)C(=O)NCC(=O)N[C@@H](CCCNC(=N)N)C(=O)NCC(N)=O)C(C)C` [S6], the “Potency (%), Table S1” value was < 0.01%. Besides, the pEC50 under setting [1] is < 5.00.

With `CC[C@H](C)[C@H](NC(=O)[C@H](Cc1ccccc1)NC(=O)[C@H](CCC(=O)O)NC(=O)[C@H](CCCCN)NC(=O)[C@H](C)NC(=O)[C@H](C)NC(=O)[C@H](CCC(N)=O)NC(=O)CNC(=O)[C@H](CCC(=O)O)NC(=O)[C@H](CC(C)C)NC(=O)[C@H](Cc1ccc(O)cc1)NC(=O)[C@H](CO)NC(=O)[C@H](CO)NC(=O)[C@@H](NC(=O)[C@H](CC(=O)O)NC(=O)[C@H](CO)NC(=O)[C@@H](NC(=O)[C@H](Cc1ccccc1)NC(=O)[C@@H](NC(=O)CNC(=O)[C@H](CCC(=O)O)NC(=O)NC[C@H](CCCCN)NC(=O)[C@@H](N)Cc1c[nH]cn1)[C@@H](C)O)[C@@H](C)O)C(C)C)C(=O)N[C@@H](C)C(=O)N[C@@H](Cc1c[nH]c2ccccc12)C(=O)N[C@@H](CC(C)C)C(=O)N[C@H](C(=O)N[C@@H](CCCCN)C(=O)NCC(=O)N[C@@H](CCCNC(=N)N)C(=O)NCC(N)=O)C(C)C` [S8], the “Potency (%), Table S1” value is < 0.01%. Moreover, the negative-log EC50 (pEC50) under setting [1] is < 5.00.
